Experiment [1] concerns the target T1, NHE3 (Homo sapiens, UniProt P48764).
T1 construct: expressed in transfected cells
T1 sequence (P48764 26-834): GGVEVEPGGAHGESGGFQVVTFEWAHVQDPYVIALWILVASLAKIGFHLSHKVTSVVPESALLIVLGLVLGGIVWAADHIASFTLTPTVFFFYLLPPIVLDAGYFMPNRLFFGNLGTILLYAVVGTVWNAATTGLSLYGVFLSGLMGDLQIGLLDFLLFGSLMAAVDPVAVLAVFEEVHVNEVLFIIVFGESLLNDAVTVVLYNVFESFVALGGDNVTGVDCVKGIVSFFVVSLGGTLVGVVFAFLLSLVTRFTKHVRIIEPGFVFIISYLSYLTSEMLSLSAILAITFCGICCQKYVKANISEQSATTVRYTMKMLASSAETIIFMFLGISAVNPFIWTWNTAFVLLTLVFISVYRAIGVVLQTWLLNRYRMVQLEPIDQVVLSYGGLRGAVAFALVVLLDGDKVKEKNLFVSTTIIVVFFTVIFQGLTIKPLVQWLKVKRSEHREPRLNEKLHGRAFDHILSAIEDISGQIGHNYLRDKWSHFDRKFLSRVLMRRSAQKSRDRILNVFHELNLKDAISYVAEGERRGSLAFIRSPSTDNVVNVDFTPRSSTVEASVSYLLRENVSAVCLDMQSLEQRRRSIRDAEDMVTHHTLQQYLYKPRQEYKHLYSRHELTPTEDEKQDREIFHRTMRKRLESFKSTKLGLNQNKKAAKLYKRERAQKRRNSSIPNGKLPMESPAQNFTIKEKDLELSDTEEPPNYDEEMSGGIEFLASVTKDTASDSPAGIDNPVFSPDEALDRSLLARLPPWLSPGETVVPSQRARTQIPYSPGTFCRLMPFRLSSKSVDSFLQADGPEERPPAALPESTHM
T1 sequence (Q99653 2-195 partner limits assumed): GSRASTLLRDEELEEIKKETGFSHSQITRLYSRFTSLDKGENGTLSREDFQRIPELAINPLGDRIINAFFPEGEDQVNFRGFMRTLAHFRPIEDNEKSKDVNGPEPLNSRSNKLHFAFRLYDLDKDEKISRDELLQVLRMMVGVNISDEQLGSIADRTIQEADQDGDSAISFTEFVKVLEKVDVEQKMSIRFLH
Kind of experiment: Cell-based assay of NHE-3 activity (persistent inhibition), human. Particulars: human Persistence, 60 min incubation then washout. The gist of the method: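 Persistent inhibition: compound (0-30 μM, 60 min, RT, NaCl-HEPES pH 7.4) removed before assay. Human NHE3/NHERF2 PS120 cells were then BCECF-loaded during NH4Cl pulse (30 min, 37 °C), acidified in Na+-free buffer, and Na+ added 10 min after washout; antiport measured as initial fluorescence-ratio change per minute.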

The target in experiment [2] is T1, NHE3. Kind of experiment: Cell-based assay of NHE-3 activity (pre-incubation inhibition), human. Particulars: human Preincubation; for pIC50: 0-30 μM test compound. The procedure, abridged: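 Activity read as initial rate of BCECF fluorescence ratio change per minute (ex 439/505, em 538 nm) following NH4Cl prepulse acid loading. Compound (0–30 μM) present during 10 min Na+-free acidification at room temperature; cells were PS120 fibroblasts stably co-expressing human NHE3 and NHERF2.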

Structures are written as SMILES.

The term IC50 denotes the point on the concentration scale where inhibition reaches its midpoint.

Regarding `CN1CCCN([C@H]2Cc3c(C#N)cc(Cl)cc3[C@@H]2Oc2ccc(S(=O)(=O)N[C@H]3CCN(CCOCCNC(=O)NCCCCNC(=O)NCCOCCN4CC[C@H](NS(=O)(=O)c5ccc(O[C@H]6c7cc(Cl)cc(C#N)c7C[C@@H]6N6CCCN(C)CC6)cc5)C4)C3)cc2)CC1` [Example 128, 4-([(1S,2S)-6-Chloro-4-cyano-2-(4-methyl-1,4-diazepan-1-yl)-2,3-dihydro-1H-inden-1-yl]oxy)-N—[(S)-1-(20-[(S)-3-([4-([(1S,2S)-6-chloro-4-cyano-2-(4-methyl-1,4-diazepan-1-yl)-2,3-dihydro-1H-inden-1-yl]oxy)phenyl]sulfonamido)pyrrolidin-1-yl]-7,14-diaxo-3,18-dioxa-6,8,13,15-tetraazaicosyl)pyrrolidin-3-yl]benzenesulfonamide], on NHE3 [1], the “% inhibition” value was “A (NHE3 < 40%)” and the pIC50 entry is on record as “C (NHE3 pIC50 > 7)”. For the same compound, on NHE3 [2], the “% inhibition” value is on record as “A (NHE3 < 40%)” and the pIC50 result is on record as “A (NHE3 pIC50 < 6)”.
Regarding `CN1CCCN([C@H]2Cc3c(C#N)cc(Cl)cc3[C@@H]2Oc2ccc(S(=O)(=O)N[C@@H]3CCN(CCOCCNC(=O)NCCCCNC(=O)NCCOCCN4CC[C@@H](NS(=O)(=O)c5ccc(O[C@H]6c7cc(Cl)cc(C#N)c7C[C@@H]6N6CCCN(C)CC6)cc5)C4)C3)cc2)CC1` [Example 129], at NHE3 [1], the “% inhibition” value is recorded as “A (NHE3 < 40%)” and the pIC50 entry is listed as “C (NHE3 pIC50 > 7)”. On NHE3 [2], the “% inhibition” value is listed as “A (NHE3 < 40%)” and the pIC50 entry was “A (NHE3 pIC50 < 6)”.
For the compound `N#Cc1cc(Cl)cc2c1C[C@H](N1C[C@@H]3C[C@H]1CN3)[C@H]2Oc1ccc(S(=O)(=O)N[C@H]2CCN(CCOCCNC(=O)NCCCCNC(=O)NCCOCCN3CC[C@H](NS(=O)(=O)c4ccc(O[C@H]5c6cc(Cl)cc(C#N)c6C[C@@H]5N5C[C@@H]6C[C@H]5CN6)cc4)C3)C2)cc1` [Example 130, 4-([(1S,2S)-2-[(1S,4S)-2,5-Diazabicyclo[2.2.1]heptan-2-yl]-6-chloro-4-cyano-2,3-dihydro-1H-inden-1-yl]oxy)-N—[(S)-1-(20-[(S)-3-[(4-([(1S,2S)-2-[(1S,4S)-2,5-diazabicyclo[2.2.1]heptan-2-yl]-6-chloro-4-cyano-2,3-dihydro-1H-inden-1-yl]oxy)phenyl]sulfonamido)pyrrolidin-1-yl]-7,14-dioxo-3,18-dioxa-6,8,13,15-tetraazaicosyl)pyrrolidin-3-yl]benzenesulfonamide; bis(trifluoroacetic acid)], at NHE3 [1], the “% inhibition” value is given as “C (>70%)” and the IC50 is 100 to 1000 nM. Also, at NHE3 [2], the “% inhibition” value was “B (40-70%)” and the pIC50 entry is reported as “C (NHE3 pIC50 > 7)”.
Consider `N#Cc1cc(Cl)cc2c1C[C@H](N1C[C@@H]3C[C@H]1CN3)[C@H]2Oc1ccc(S(=O)(=O)N[C@@H]2CCN(CCOCCNC(=O)NCCCCNC(=O)NCCOCCN3CC[C@@H](NS(=O)(=O)c4ccc(O[C@H]5c6cc(Cl)cc(C#N)c6C[C@@H]5N5C[C@@H]6C[C@H]5CN6)cc4)C3)C2)cc1` [Example 131, 4-([(1S,2S)-2-[(1S,4S)-2,5-Diazabicyclo[2.2.1]heptan-2-yl]-6-chloro-4-cyano-2,3-dihydro-1H-inden-1-yl]oxy)-N—[(R)-1-(20-[(R)-3-([4-([(1S,2S)-2-[(1S,4S)-2,5-diazabicyclo[2.2.1]heptan-2-yl]-6-chloro-4-cyano-2,3-dihydro-1H-inden-1-yl]oxy)phenyl]sulfonamido)pyrrolidin-1-yl]-7,14-dioxo-3,18-dioxa-6,8,13,15-tetraazaicosyl)pyrrolidin-3-yl]benzenesulfonamide; bis(trifluoroacetic acid)], for which, at NHE3 [1], the “% inhibition” value is “C (>70%)” and the IC50 is 100 to 1000 nM. On NHE3 [2], the “% inhibition” value is given as “C (>70%)” and the pIC50 entry was “C (NHE3 pIC50 > 7)”.
As to `C[C@H]1CN([C@H]2Cc3c(C#N)cc(Cl)cc3[C@@H]2Oc2ccc(S(=O)(=O)N[C@H]3CCN(CCOCCNC(=O)NCCCCNC(=O)NCCOCCN4CC[C@H](NS(=O)(=O)c5ccc(O[C@H]6c7cc(Cl)cc(C#N)c7C[C@@H]6N6CCN[C@@H](C)C6)cc5)C4)C3)cc2)CCN1` [Example 134, 4-([(1S,2S)-6-Chloro-4-cyano-2-[(S)-3-methylpiperazin-1-yl]-2,3-dihydro-1H-inden-1-yl]oxy)-N—[(S)-1-(20-[(S)-3-([4-([(1S,2S)-6-chloro-4-cyano-2-[(S)-3-methylpiperazin-1-yl]-2,3-dihydro-1H-inden-1-yl]oxy)phenyl]sulfonamido)pyrrolidin-1-yl]-7,14-dioxo-3,18-dioxa-6,8,13,15-tetraazaicosyl)pyrrolidin-3-yl]benzenesulfonamide; bis(trifluoroacetic acid)], at NHE3 [1], the “% inhibition” value was “C (>70%)” and the pIC50 result is “C (NHE3 pIC50 > 7)”. Also, at NHE3 [2], the “% inhibition” value is recorded as “C (>70%)” and the pIC50 result is on record as “C (NHE3 pIC50 > 7)”.
On to `C[C@H]1CN([C@H]2Cc3c(C#N)cc(Cl)cc3[C@@H]2Oc2ccc(S(=O)(=O)N[C@@H]3CCN(CCOCCNC(=O)NCCCCNC(=O)NCCOCCN4CC[C@@H](NS(=O)(=O)c5ccc(O[C@H]6c7cc(Cl)cc(C#N)c7C[C@@H]6N6CCN[C@@H](C)C6)cc5)C4)C3)cc2)CCN1` [Example 135], for which, at NHE3 [1], the “% inhibition” value was “C (>70%)” and the pIC50 entry is given as “C (NHE3 pIC50 > 7)”. At NHE3 [2], the “% inhibition” value is given as “C (>70%)” and the pIC50 result is “C (NHE3 pIC50 > 7)”.
Consider `C[C@@H]1CN([C@H]2Cc3c(C#N)cc(Cl)cc3[C@@H]2Oc2ccc(S(=O)(=O)N[C@H]3CCN(CCOCCNC(=O)NCCCCNC(=O)NCCOCCN4CC[C@H](NS(=O)(=O)c5ccc(O[C@H]6c7cc(Cl)cc(C#N)c7C[C@@H]6N6C[C@@H](C)N[C@@H](C)C6)cc5)C4)C3)cc2)C[C@H](C)N1` [Example 136], for which, on NHE3 [1], the “% inhibition” value is “C (>70%)” and the pIC50 entry is given as “C (NHE3 pIC50 > 7)”. Further, at NHE3 [2], the “% inhibition” value is recorded as “C (>70%)” and the pIC50 entry is “C (NHE3 pIC50 > 7)”.
With `C[C@@H]1CN([C@H]2Cc3c(C#N)cc(Cl)cc3[C@@H]2Oc2ccc(S(=O)(=O)N[C@@H]3CCN(CCOCCNC(=O)NCCCCNC(=O)NCCOCCN4CC[C@@H](NS(=O)(=O)c5ccc(O[C@H]6c7cc(Cl)cc(C#N)c7C[C@@H]6N6C[C@@H](C)N[C@@H](C)C6)cc5)C4)C3)cc2)C[C@H](C)N1` [Example 137, 4-([(1S,2S)-6-Chloro-4-cyano-2-[(3S,5R)-3,5-dimethylpiperazin-7-yl]-2,3-dihydro-1H-inden-1-yl]oxy)-N—[(R)-1-(20-[(R)-3-([4-([(1S,2S)-6-chloro-4-cyano-2-[(3S,5R)-3,5-dimethylpiperazin-1-yl]-2,3-dihydro-1H-inden-1-yl]oxy)phenyl]sulfonamido)pyrrolidin-1-yl]-7,14-dioxo-3,18-dioxa-6,8,13,15-tetraazaicosyl)pyrrolidin-3-yl]benzenesulfonamide; bis(trifluoroacetic acid)], the “% inhibition” value on NHE3 [1] and on NHE3 [2] was “C (>70%)” in each case. For the same compound, the pIC50 entry against NHE3 [1] and at NHE3 [2] was “C (NHE3 pIC50 > 7)” each time.

The values above are taken from patent publication US11242337B2, “Compounds useful for treating gastrointestinal tract disorders” (Ardelyx, Inc., priority 2017, dated 2022).
